Measured values reported in patent US11576859B2, “Gastric residence systems for sustained release of therapeutic agents and methods of use thereof” (Lyndra Therapeutics, Inc., priority 2015, dated 2023).
Values after ≈ are worked out from the molar mass of the structure shown. One block for each compound: values may come before it.

What was measured:
[1] = PCL/SGF partition coefficient; type: physicochemical; details: 5:1 PCL diol (MW 530):ethyl acetate versus FaSSGF
Procedure: Partitioning of active pharmaceutical ingredient (API) between the structural polymer, polycaprolactone (PCL), and fasted state simulated gastric fluid (FaSSGF) is of interest for predicting API release rate from PCL-based formulations. To measure the PCL-SGF partition coefficient of an API, a concentrated stock solution of API was added to a mixture of 1 mL FaSSGF and 1 mL of 5:1 PCL diol (MW 530):ethyl acetate. The sample was vortexed and centrifuged at 10000 rpm for 5 minutes. The SGF phase was analyzed by HPLC to measure drug concentration. The PCL phase was diluted in methanol prior to quantification on HPLC.

[2] = physchem; details: water, thermodynamic from solid
Description: First, various surfactants were screened for their ability to improve aripiprazole solubility in FaSSGF and water. Equilibrium solubility of aripiprazole in the presence of surfactants was estimated in water and FaSSGF by the procedure described in Example 50.

[3] = physchem; details: thermodynamic from solid
[4] = method not given; cited from earlier work
[5] = Aripiprazole stability versus processing temperature
[6] = Time dependent thermal processing stability of aripiprazole at 100 °C; details: for Visual Observation / Impurity % 0.86 RRT: extruded at 100 °C
[7] = Rosuvastatin forced degradation in solution and in polycaprolactone formulation; type: physicochemical
Procedure: SOLUTION CONDITIONS: For acid degradation studies, rosuvastatin was dissolved to 1 mg/mL in 0.1M HCl and heated for the specified time and temperature. For alkaline degradation, rosuvastatin was dissolved to 1 mg/mL in 0.1M NaOH and heated to 80° C. for 1 h. For oxidative degradation, rosuvastatin was dissolved to 1 mg/mL in 30% hydrogen peroxide and heated to 80° C. for 30 min. For stability over time, rosuvastatin was dissolved to 1 mg/mL in water at room temperature for 5 days. For thermal degradation studies in solution, rosuvastatin was dissolved to 1 mg/mL in dimethylsulfoxide and heated to the specified temperature for 2 h. In each case, samples of the solution were diluted in methanol and analyzed by LCMS to determine the ratio of intact drug to degraded drug.
POLYMER CONDITIONS: For thermal degradation studies in formulation, rosuvastatin was blended with PCL at a ratio of 25:75 drug:PCL and the blend was heated to the specified temperature for 2 h. The drug-polymer blend was then dissolved in dichloromethane and this solution was added to excess methanol to precipitate PCL. Samples of the methanol solution were then analyzed by LCMS to determine the ratio of intact drug to degraded drug.

[8] = as above; type: physicochemical; details: Heat: 1 mg/mL drug in DMSO, 1 h
[9] = oral, once daily; cited from earlier work
[10] = extruded at 90 °C, same formulation
[11] = extruded at 100 °C, same formulation
[12] = extruded at 120 °C, same formulation
[13] = extruded at 140 °C, same formulation
[14] = extruded at 160 °C, same formulation
[15] = extruded at 180 °C, same formulation

- LogP (PCL/SGF) [1]: 1.67
- PCL/SGF Partition Coefficient [1]: 49
- solubility [2]: ~0.000456 mg/mL (≈ 1.02 µM)
- solubility ([3]; pH 1.06, simulated gastric fluid): 0.5 mg/mL (≈ 1120 µM)
- solubility ([3]; pH 3, aqueous buffer): 0.12 mg/mL (≈ 268 µM)
- solubility ([3]; pH 4.65, aqueous buffer): 0.11 mg/mL (≈ 245 µM)
- Visual Observation ([5]; extruded at 90 °C, 10 min batch mixing 75 rpm, 20% Aripiprazole/10% Kolliphor P407/10% Eudragit EPO/80 K PCL formulation): White
- % Impurity Total [5, 10]: <0.05%
- % Impurity at RRT 0.64 [5, 10]: <0.05%
- % Impurity Total [5, 11]: <0.05%
- % Impurity at RRT 0.64 [5, 11]: <0.05%
- Visual Observation [5, 11]: White
- % Impurity Total [5, 12]: <0.05%
- % Impurity at RRT 0.64 [5, 12]: <0.05%
- Visual Observation [5, 12]: White
- % Impurity Total [5, 13]: 0.14%
- % Impurity at RRT 0.64 [5, 13]: <0.05%
- % Impurity at RRT 0.86 [5, 13]: 0.14%
- Visual Observation [5, 13]: Slight pink
- % Impurity Total [5, 14]: 0.21%
- % Impurity at RRT 0.22 [5, 14]: 0.08%
- % Impurity at RRT 0.42 [5, 14]: 0.08%
- % Impurity at RRT 0.64 [5, 14]: 0.05%
- Visual Observation [5, 14]: Brown
- % Impurity Total [5, 15]: 0.60%
- % Impurity at RRT 0.22 [5, 15]: 0.28%
- % Impurity at RRT 0.42 [5, 15]: 0.12%
- % Impurity at RRT 0.64 [5, 15]: 0.07%
- % Impurity at RRT 0.71 [5, 15]: <0.05%
- % Impurity at RRT 0.81 [5, 15]: 0.05%
- % Impurity at RRT 0.93 [5, 15]: 0.08%
- Visual Observation [5, 15]: Brown
- degradation at 100 °C at all the timepoints ([6]; 5 to 30 minutes extrusion, same formulation): no significant degradation
- Visual Observation ([6]; 5 min, 75 rpm, 20% aripiprazole/10% Kolliphor P407/10% Eudragit EPO/80 K PCL formulation): White colored extrudate
- Impurity % 0.86 RRT ([6]; 5 min, same formulation): 0.08%
- Impurity % 0.86 RRT ([6]; 10 min, same formulation): 0.08%
- Visual Observation ([6]; 10 min, same formulation): White colored extrudate
- Impurity % 0.86 RRT ([6]; 15 min, same formulation): 0.08%
- Visual Observation ([6]; 15 min, same formulation): White colored extrudate
- Impurity % 0.86 RRT ([6]; 20 min, same formulation): 0.08%
- Visual Observation ([6]; 20 min, same formulation): White colored extrudate
- Impurity % 0.86 RRT ([6]; 30 min, same formulation): 0.08%
- Visual Observation ([6]; 30 min, same formulation): White colored extrudate
Compound: O=C1CCc2ccc(OCCCCN3CCN(c4cccc(Cl)c4Cl)CC3)cc2N1 [Aripiprazole]
- LogP (Octanol/water) [4]: 5.59

- LogP (PCL/SGF) [1]: −0.56
- PCL/SGF Partition Coefficient [1]: 0.28
Compound: CC12CC3CC(C)(C1)CC(N)(C3)C2 [Memantine]

Compound: Cc1nc2n(c(=O)c1CCN1CCC(c3noc4cc(F)ccc34)CC1)CCCC2 [Risperidone]
- PCL/SGF Partition Coefficient [1]: 0.03

- % Intact drug ([7]; Acid: 0.1N HCl, 37 C., 2 d): 66%
- % Intact drug ([7]; Acid: 0.1N HCl, 37 C., overnight, 1 mg/mL): 87%
- % Intact drug ([7]; Acid: 0.1N HCl, 50 C., 4 h): 93%
- % Intact drug ([7]; Acid: 0.1N HCl, 50 C., overnight): 58%
- % Intact drug ([7]; Acid: 0.1N HCl, 80 C., 1 h): ~100%
- % Intact drug ([7]; Base: 0.1M NaOH, 80 C., 1 h): ~100%
- % Intact drug ([7]; Heat: 1 mg/mL drug in DMSO, 100 C., 2 h): 86%
- % Intact drug ([7]; Heat: 1 mg/mL drug in DMSO, 120 C., 2 h): 77%
- % Intact drug ([7]; Oxidation: 30% H2O2, 80 C., 30 min): ~100%
- % Intact drug ([7]; Polymer-blended: 25% drug in polycaprolactone, 100 C., 2 h): >95%
- % Intact drug ([7]; Polymer-blended: 25% drug in polycaprolactone, 120 C., 2 h): >95%
- % Intact drug ([7]; Time: 1 mg/mL drug in water, room temperature, 5 days): 62%
- % Intact drug ([8]; 100 C.): 86%
- % Intact drug ([8]; 120 C.): >95%
Compound: CC(C)c1nc(N(C)S(C)(=O)=O)nc(-c2ccc(F)cc2)c1/C=C/[C@@H](O)C[C@@H](O)CC(=O)[O-].CC(C)c1nc(N(C)S(C)(=O)=O)nc(-c2ccc(F)cc2)c1/C=C/[C@@H](O)C[C@@H](O)CC(=O)[O-].[Ca+2] [Rosuvastatin calcium]

- acid stability in PCL formulation versus in solution ([7]; FIG. 20): protects the drug from acid degradation
Compound: CC(C)c1nc(N(C)S(C)(=O)=O)nc(-c2ccc(F)cc2)c1/C=C/[C@@H](O)C[C@@H](O)CC(=O)O [Rosuvastatin]
- thermal stability in PCL formulation versus in solution ([7]; FIG. 21): protects the drug from degradation at elevated temperatures
- elimination half-life [9]: approximately 19 hours

- LogP (PCL/SGF) [1]: 0.27
- PCL/SGF Partition Coefficient [1]: 1.88
Compound: Doxycycline Hyclate
- LogP (Octanol/water) [4]: −1.9

Compound: Ivermectin
- LogP (PCL/SGF) [1]: 2.60
- PCL/SGF Partition Coefficient [1]: 398
- LogP (Octanol/water) [4]: 4.1
